Patent US6673555B1, “Methods of using SCAP antagonists” (SmithKline Beecham Corporation, priority 1999, dated 2004)

Assays:
[1] = tested on: golden Syrian hamster previously fed with a cholesterol rich diet; assay: Lipoprotein cholesterol profile by gel filtration in cholesterol-fed hamsters (FIG. 7); type: in vivo; conditions: 5 mg/kg oral once a day for 3 days
Protocol: (§1) The in vivo activity of SCAP antagonist was determined in the golden Syrian hamster previously fed with a cholesterol rich diet. Male Syrian golden hamsters (Janvier, France) were kept on a 12 h light-dark cycle. Animals (7 weeks age, 150 g) were fed for 2 weeks with a high cholesterol diet containing 0.2% cholesterol plus 10% coconut oil. Animals (n=5 per group) were then treated orally with vehicle, (0.5% methylcellulose, 5% Tween 80) or Example 1 at 1, 5 or 20 mg/kg in the vehicle, once a day for 3 days.
(§2) 4h after the last treatment, animals were anesthetized, blood was collected and serum was prepared by centrifugation. Total cholesterol was determined using a enzymatic assay kit (Biomerieux, France). Lipoproteins were separated by ultracentrifugation using a single KBr concentration (density 1.063). Cholesterol and triglycerides associated with the upper phase (corresponding to VLDL +LDL lipoproteins) and cholesterol associated with the lower phase (corresponding to the HDL fraction) were determined using the enzymatic assays kits. Apolipoprotein B100 associated with VLDL and LDL lipoprotein fraction were analysed by SDS-PAGE and Coomassie blue staining. Lipoproteins were also separated by high-performance gel filtration chromatography with on-line colorimetric determination of cholesterol. Lipoprotein separation was performed on a single superose 6HR column (Pharmacia) with an elution buffer consisting of 10 mM tris, 1 mM EDTA and 150 mM NaCl adjusted at pH 7.4. Cholesterol was measured on line using the RTU enzymatic assay (Biomerieux). The column was calibrated using human lipoproteins and the various peaks in cholesterol profiles are designated VLDL, LDL and HDL for simplicity.
(§3) Cholesterol-fed animals were treated for 3 days with Example 1 at 1 and 20 mg/kg. […] In another experiment, lipoproteins were separated by gel filtration and cholesterol content was quantified on-line. As shown in FIG. 7 Example 1 at […] strongly reduces atherogenic particles: 79% reduction of VLDL cholesterol and 60% reduction of LDL-cholesterol.

[2] = tested on: hamster LDL-receptor mRNA; assay: LDL-receptor mRNA by real-time PCR in livers of cholesterol-fed hamsters; type: in vivo, Syrian golden hamster; conditions: 5 mg/kg oral once a day for 3 days, versus vehicle, FIG. 6
Protocol: as §1
4 hours after the last administration, animals were sacrificed and livers were immediately dropped into liquid nitrogen. Total RNA was extracted using RNAqous kit (Ambion) according to manufacturer instruction. […] The expression of the hamster LDL-receptor was determined using the following primers: SEQ ID NO: 12 […] and SEQ ID NO: 13 […]. […] Each sample was quantified in duplicates and the cycle threshold (Ct) were calculated. For each animal the difference between Ct values for the LDL-receptor and Ribosomal RNA were calculated. The quantity of LDL-receptor mRNA relative to Ribosomal RNA reference was calculated as 2^−ΔΔCt and expressed in arbitrary units.
Cholesterol-fed hamsters were treated with Example 1 (5 mg/kg) or vehicle for 3 days. LDL-receptor mRNA in the liver was quantified by real-time PCR using Ribosomal 18S RNA as internal reference.

human SREBP-2 = assay: Western blot analysis of the proteolytic maturation of SREBP-2 in HepG2 cells; type: cell-based; conditions: 1 μM, 18 hours
Protocol: The involvement of the SREBP pathway was confirmed by Western Blot immunodetection of precursor and mature forms of human SREBP-2.
HepG2 cells were seeded in 150 cm^2 flasks at 8×10^6 cells and transfected with 10 μg of pTK-HSV-BP2 using Fugene 6 and incubated for 20 h before addition of 1 μM of example 1 or vehicle. After 18 h of incubation, membrane fraction and nuclear extracts were obtained using the method described by Hua, X. et al., J. Biol. Chem. 270: 29422-27 (1995).
Proteins (20 μg/load) were separated on 8% SDS-PAGE and blotted onto BA 83 nitrocellulose membrane (Schleisher & Schuell). The HSV tag present in the amino terminus of SREBP-2 was detected using 0.2 μg/ml of anti-HSV antibodies after saturation with 10% non-fat milk.
HepG2 cells were transfected (FIG. 4, lane b-e) or not transfected (FIG. 4, lane a) with pTK-HSV-BP2 vector encoding human SREBP-2 preceded by HSV tag. Cells were treated for 18 hours with Example 1 (1 μM) (lane c, d) or vehicle (lane a, b, e) and nuclear extract (lane d, e) and membrane (lane a-c) were isolated and analysed by western blotting using anti-HSV antibodies.

[3] = tested on: golden Syrian hamster previously fed with a cholesterol rich diet; assay: Lipoprotein and lipid in sera of cholesterol-fed hamsters (ultracentrifugation, enzymatic assays, SDS-PAGE); type: in vivo; conditions: for apoB100: VLDL and LDL fraction; for reduction of LDL-cholesterol / reduction of triglycerides: Table 1
Protocol: as §1, §2, §3

HepG2 cells = assay: Uptake of Dil-LDL by HepG2 cells; type: cell-based; conditions: 0.5 μM, 24 hours, Dil-LDL 6 μg/ml for last 4 hours, FIG. 5
Protocol: To determine if activation of LDL-receptor promoter also translated into an increase in functional LDL receptors, an LDL uptake assay was set up. HepG2 cells seeded at 8 10^4 cells per 8 well Biocoat slides (Beckton Dickinson) were treated with SCAP antagonist or 25OH-cholesterol for 20h and then incubated with 6 μg/ml of fluorescent Dil-LDL for 4 hours. The amount of fluorescent dye that accumulated in the lysosomes was quantified by fluorescence microscopy using Axioplan-2 Zeiss microscope equipped with DXC950P video camera (Sony) and red fluorescence filters.
HepG2 cells were treated for 24 hours in the presence of 0.5 μM Example 1 or 10 μM 25OH-cholesterol. Dil-LDL (6 μg/ml) were added 4 hours before the end of the incubation. Cells were washed and observed by fluorescence microscopy using rhodamine filters and video camera with fixed settings.

[4] = 1 mg/kg oral once a day for 3 days
[5] = 1 mg/kg oral once a day for 3 days, serum 4h after last treatment
[6] = 20 mg/kg oral once a day for 3 days
[7] = 20 mg/kg oral once a day for 3 days, serum 4h after last treatment

In the case of `CCOc1cc(CC)ccc1C1CCN(CCCCNC(=O)c2ccc(NC(=O)c3ccc(Cl)cc3)cc2)CC1` [Example 1, 4-(4-Chloro-benzoylamino)-N-{4-[4-(2-ethoxy-4-ethyl-phenyl)-piperidin-1-yl]-butyl}-benzamide], the “increase of cholesterol contained in HDL particles” value [1] is reported as 25%, the “reduction of LDL-cholesterol” value [1] is reported as 60% and the “reduction of VLDL cholesterol” value [1] is reported as 79%. The “LDL-receptor mRNA in the liver” value [2] was “increased mRNA for LDL-receptor”, the “amount of SREBP-2 precursor form in the membrane” value (human SREBP-2; HepG2 transfected with pTK-HSV-BP2, FIG. 4) was “reduces the amount of SREBP-2 precursor form present in the membrane” and the “amount of mature SREBP-2 in the nucleus” value (human SREBP-2; HepG2 transfected with pTK-HSV-BP2, nuclear extract, FIG. 4) was “strongly increases the amount of mature SREBP-2 in the nucleus”. The “CHOLESTEROL HDL chol, % of control” value [3, 4] was 123%, the “CHOLESTEROL LCLchol, % of control” value [3, 4] was 50% and the “CHOLESTEROL TOTAL, % of control” value [3, 4] was 79%. The “Triglycerides TOTAL, % of control” value [3, 4] was 37% (p < 0.001), the “apoB100, % of control” value [3, 4] was 62% (p < 0.005) and the apoB100 [3, 4] was 3.1 ± 0.4 S.U. For the same compound, the “CHOLESTEROL HDL chol” value [3, 5] was 1.5 ± 0.1 g/L, the “CHOLESTEROL LCLchol” value [3, 5] was 0.95 ± 0.2 g/L and the “CHOLESTEROL TOTAL” value [3, 5] was 3.1 ± 0.3 g/L. The “Triglycerides TOTAL” value [3, 5] was 1.3 ± 0.2 g/L, the “reduction of LDL-cholesterol” value ([3]; 1 mg/kg, 3 days) was 50% and the reduction of triglycerides ([3]; 1 mg/kg, 3 days) was 63%. The “CHOLESTEROL HDL chol, % of control” value [3, 6] was 113% NS, the “CHOLESTEROL LCLchol, % of control” value [3, 6] was 17% and the “CHOLESTEROL TOTAL, % of control” value [3, 6] was 55%. For the same compound, the “Triglycerides TOTAL, % of control” value [3, 6] was 24% (p < 0.001), the “apoB100, % of control” value [3, 6] was 25% (p < 0.005) and the apoB100 [3, 6] was 1.2 ± 0.2 S.U. The “CHOLESTEROL LCLchol” value [3, 7] was 0.3 ± 0.1 g/L, the “CHOLESTEROL TOTAL” value [3, 7] was 2.1 ± 0.3 g/L and the “Triglycerides TOTAL” value [3, 7] was 0.8 ± 0.02 g/L. For the same compound, the “reduction of LDL-cholesterol” value ([3]; 20 mg/kg, 3 days) was 83%, the reduction of triglycerides ([3]; 20 mg/kg, 3 days) was 76% and the “effect on Apolipoprotein B100” value ([3]; 1 and 20 mg/kg, 3 days) was “reduced to the same extent”. For the same compound, the “effect on HDL-cholesterol” value ([3]; 1 and 20 mg/kg, 3 days) was “unaffected”, the melting point was 250 °C and the “LDL uptake (Dil-LDL fluorescence)” value (HepG2 cells) was “markedly increased the LDL uptake”.
